Test results taken from patent US4233309A, “Novel 1-substituted-3-acylpyrrole derivatives, platelet aggregation inhibitors containing them, as active ingredients, and processes for production of said derivatives” (Teijin Limited, priority 1977, dated 1980).
Converted amounts (≈) assume the structure as drawn. Like-named read-outs stand apart in the source and are kept apart here.

Experiments:
[1] = system: biosynthesis of prostaglandins (microsomes of the seminal vesicle of bovine); experiment: Inhibitory effect on prostaglandin biosynthesis in vitro (Table 3); assay type: biochemical; conditions: 4 μg/ml sodium arachidonate, bioassay on rat fundus stomach strips
Method: Sprangue-Dawley rats (male, 180-200 g) were fasted overnight, and killed by blow on the head. The stomach was isolated, and fundus stomach strips were prepared. The smooth muscle strips were perfused with Krebs-Hensleit solution (gassed with 95% O2 +5% CO2 gas) of 37° C. at a rate of […]. The Krebs-Hensleit solution contained 0.1 μg/ml of atropine, 0.1 μg/ml of phenoxybenzamine, 3 μg/ml of propranolol, 0.1 μg/ml of tripelennamine, and 0.2 μg/ml of methylsergide to prevent the effect of smooth muscle contracting substances, and 1 μg/ml of indomethacine to inhibit the biosynthesis of prostaglandin by the smooth muscles. Then, 150 μl of a reaction solution containing biologically synthesized prostaglandin was added to the perfusion solution, and the amount of the biologically synthesized prostaglandin was measured from the contraction of the smooth muscles. The contraction of the smooth muscles was recorded on a recorder using an isotonic transducer.
The reaction solution containing biologically synthesized prostaglandin was prepared in the following manner.
To 0.4 mg/ml of microsomes of the seminal vesicle of bovine were added 5 mM of L-tryptophan, 0.025 μM of bovine hemoglobin and 3 mμ of glutathione as cofactors. The mixture was incubated together with each of the test compounds shown in Table 4 at 37° C. for 2 minutes, and immediately then, 4 μg/ml of sodium arachidonate was added. The mixture was further incubated at 37° C. for 10 minutes, and immediately then, the prostaglandin activity of the reaction solution was measured by bioassay.
The microsomes of the seminal vesicle of bovine had been prepared by suspending microsomes of the seminal vesicle of bovine (a product of Miles Laboratories, Inc.) in a 50 mM Tris.HCl buffer (pH 7.4) using a glass homogenizer, and stored in ice water prior to use.
ID50 denotes the concentration of each test compound required to inhibit the biosynthesis of prostaglandins by 50%.

carrageenan edema = experiment: Antiinflammatory activity (carrageenan edema of rat paw, Table 5); assay type: in vivo, Sprangue-Dawley (SD) male rats; conditions: 100 mg/kg orally, 3 h after 1% carrageenan
Method: Sprangue-Dawley (SD) male rats with a body weight of 160 to 180 g, four in each group, were used. The volume of the left leg was measured, and each of the test compounds shown in Table 5 (100 mg/kg dissolved in polyethylene glycol so as to provide a volume of 2 ml/kg) was orally administered. One hour later, 0.1 ml of 1% carrageenan (dissolved in physiological saline) as an inflammation-inducing substance was subcutaneously injected to the paw of the left hind leg. A control group was orally administered with 2 ml/kg of polyethylene glycol. As a positive control, 25 mg/kg of Ibprofen was similarly administered. Three hours after the injection of 1% carrageenan, the volume of the left leg was measured, and the ratio of edema was calculated from the volume before the administration of the carrageenan. The percent inhibition of edema in comparison with the control group was determined.

[2] = system: platelet aggregation (platelet-rich plasmas (PRP) of guinea pigs); experiment: Activity of inhibiting platelet aggregation in vitro, guinea pig PRP, sodium arachidonate as aggregating agent (Table 1); assay type: cell-based, Hartley-strain male guinea pigs; conditions: Cavia porcellus, sodium arachidonate 0.03 mM final, 37° C., final concentration, read-out: IC50 (minimum concentration of drug which showed a percent inhibition of more than 50%)
Method: Some 1-substituted-3-acylpyrrole derivatives and other drugs were tested for platelet aggregation inhibiting activities in vitro using platelet-rich plasmas (PRP) of man and guinea pigs. The results are shown as minimum concentration of drugs which inhibit more than 50% of platelet aggregation induced by several aggregating agents.
In experiments with PRP of guinea pigs, sodium arachidonate (final concentration 0.03 mM) was used as an aggregating agent. In experiments with human PRP, sodium arachidonate (final concentration 0.1 mM), collagan suspension (final concentration 10 μg/ml), epinephrine solution (final concentration 20 μg/ml; for secondary aggregation), an epinephrine solution (final concentration 2 μg/ml; for primary aggregation) and ADP (final concentration 5 μM) were used as aggregating agents.
In an experiment with guinea pig PRP, citrated blood (containing 0.38% sodium citrate as a final concentration) was withdrawn by cardiac puncture from Hartley-strain male guinea pigs having a body weight of 350 to 600 g. The citrated blood was centrifuged at 1,000 rpm for 10 minutes at room temperature, and the supernatant platelet suspension (PRP) was separated.
The PRP was stored at room temperature, and used as soon as possible. Those which had been stored for more than 4 hours after preparation were not used.
For each test, a drug is dissolved in dimethylsulfoxide to a concentration of 10 mg/ml, and diluted with physiological saline to form 1 ml each of solutions having a concentration of 2500 μg/ml, 1000 μg/ml, 750 μg/ml, 500 μg/ml, 250 μg/ml and 100 μg/ml. A compound having a free carboxylic acid as a residue such as indomethacine and Ibprofen was dissolved in 0.1 M NaHCO3 to form a sodium salt solution having a concentration of 10 mg/ml. Then, the solution was diluted with physiological saline in the same way as above to form a test drug solution.
Arachidonic acid (99% pure, a product of Sigma Co., Ltd.) was dissolved in 0.1 M NaHCO3, and a 3.3 mM solution of sodium arachidonate was prepared. The solution was diluted with physiological saline to a concentration of 1 mM and used in the experiments. The 3.3 mM solution was stored in a refrigerator as a stock solution, and the 1 mM solution was newly prepared from the stock solution every time it was used.
Physiological saline (50 μl) and 50 μl of the aggregating agent solution were added to 400 μl of PRP which had been pre-warmed and stirred at 37° C. in a quvett set in a holder of an aggregometer. Platelet aggregation was thus initiated, and the change of light transmittance through a stirred platelet suspension was recorded for 3 minutes by a recorder joined to the aggregometer. An increase in transmittance after 3 minutes (T0) was used as a parameter of the rate of platelet aggregation in control experiments.
To 400 μl of PRP in a quvett was added 50 μl of a test drug solution. The mixture was pre-incubated and stirred for 2 minutes at 37° C. Then 50 μl of the aggregating agent was added to drug containing PRP and again aggregation responses were recorded as increases in light transmittance after 3 minutes (T1) in the same way as in (1) above. Percent inhibition was calculated from the formula [formula]
For the above in vitro test for the inhibition of platelet aggregation, reference may be had to H. M. Davis, J. Phyllis, K. Paul and W. Terry: Thromb. Res. 11, 217-226 (1977) and R. E. Anderson and J. G. Foulks: Thromb. Haemos. 36, 343-359 (1976).

[3] = system: platelet aggregation (guinea pig PRP, extra vivo); experiment: Inhibitory effect of compounds on platelet aggregation in extra vivo (Table 4); design: species or system Hartley-strain guinea pigs; conditions: Cavia porcellus, 100 mg/kg, route PS [sic], 1 h
Method: The effect of the compounds shown in Table 4 on platelet aggregation was assessed using guinea pig in extra vivo.
Each of the test compounds was dissolved in propylene glycol so that its concentration became 100 mg/ml (dosage corresponded to 100 mg/kg) and 30 mg/ml (dosage corresponded to 30 mg/kg). The drug solution was administered either orally or subcutaneously to Hartley-strain guinea pigs (3 per group) having a body weight of 300 to 350 g. As a control, propylene glycol was administered. One hour after the administration, citrated blood was taken out by cardiac puncture, and centrifuged to obtain PRP (see Example 67).
In the case of oral administration, the animals had been fasted overnight.
Into a quvett set in a holder of an aggregometer and prewarmed at 37° C. with stirring, was put 450 μl of the above PRP, and then 50 μl of an aggregating agent was added. The aggregation curve was recorded for an additional 3 minutes, and an increase in light transmittance through PRP after 3 minutes (TB) was recorded (see Example 67). As a control, an increase of transmittance of PRP taken from a guinea pig group administered with propylene glycol alone (TA) was recorded in the same way above. The percent inhibitions were calculated in accordance with the following equation. [formula]
As the aggregating agent, sodium arachidonate (a final concentraton of 0.03 mM) and a collagen suspension (a final concentration of 5 μg/ml) were used.
The percent inhibitions in the above table are averages of three guinea pigs. For details of the above extra vivo test about inhibition of platelet aggregation, the literature references described in Example 67 may be referred to.

## COCC(C)n1c(C)cc(C(=O)c2ccccc2)c1C (centres unmarked) [Compound 206, 2-(3-benzoyl-2,5-dimethylpyrrol-1-yl)-2-methylethyl methyl ether]
[1]
  ID50 (concentration required to inhibit the biosynthesis of prostaglandins by 50%): 18.4 µg/mL
Carrageenan edema
  Percent inhibition of edema: 10%
[2]
  IC50: 2.5 µg/mL (≈ 9.21 µM)
[3]; collagen 5 μg/ml, read-out: Percent inhibition of platelet aggregation, collagen
  inhibition at 100 mg/kg: 97%
[3]; sodium arachidonate 0.03 mM, read-out: Percent inhibition of platelet aggregation, sodium arachidonate
  inhibition at 100 mg/kg: 90%
